Several values for one entry are separate records, joined by “and”; a condition that tells them apart may be missing. Equal values may be shown once. Entries after “also recorded” stand apart in the source; their conditions may differ. Read-outs that look alike come from different tables or passages of the source.
How the values were obtained:
[1] = target: T1, H4R (Homo sapiens, UniProt Q9H3N8); assay: Competition binding assay with [3H]-histamine in HEK293T cells transiently expressing H4R; conditions: for binding to H4R in initial screening (in words): screening format, Supplementary Figure S2
T1 construct: expressed in transfected cells; host or cells: HEK293T

[2] = target: T2, H3R (Homo sapiens, UniProt Q9Y5N1); conditions: for Ki: H3R pKi ± SEM; for SI H4R/H3R (Ki): selectivity index, ratio of Ki H4R/H3R
[3] = target: T2, H3R; assay: G protein (Gi1) activation BRET assay, H3R, agonist and antagonist mode; type: cell-based; set-up: expressed in transfected cells; host or cells: HEK293T; conditions: BRET Gi1 biosensor, up to 10,000 nM
[4] = tested on: mouse asthma model; conditions: cited from earlier work
[5] = target: T1, H4R; assay: G protein (Gi1) activation BRET assay, H4R, agonist and antagonist mode; type: cell-based; conditions: for Gi activation at H4R (agonist mode): BRET Gi1 biosensor, up to 10,000 nM; for block of histamine activity at H4R (antagonist mode): preincubation 30 min at 10,000 nM before histamine
[6] = tested on: mouse asthma model; assay: OVA-induced allergic asthma in mice, cell counts in bronchoalveolar lavage; type: in vivo, Male C57Bl/6 mice; conditions: 3 and 5 mg/kg intraperitoneally 30 min before antigen challenge
Method: Male C57Bl/6 mice weighing 20–25 g, 6–8 weeks old, from our own animal facilities were housed in a room with a 12 h light–dark cycle with water and food ad libitum. Animal care and research protocols were in accordance with the principles and guidelines adopted by the Brazilian College of Animal Experimentation (COBEA) and this project was approved by the Ethical Committee for Animal Research of the Federal University of São Paulo (CEUA 1666/99).
Mice (n = 5 per group) were sensitized on days 0 and 7 by an intraperitoneal injection of a mixture containing […] of ovalbumin (OVA; Grade V, Sigma–Aldrich, United States) and 1 mg of Al(OH)3 in PBS (a total volume of 0.2 ml). Mice were challenged by exposure to an aerosol of OVA generated by an ultrasonic nebulizer (ICEL US-800, SP, Brazil) delivering particles of […] diameter at approximately 0.75 cc/min for 20 min at days 14 and 21. The concentration of OVA in the nebulizer was 2.5% w/v in PBS. The control group consisted of animals immunized as previously described and challenged two times with PBS solution. Compounds 1d and 1e were administered intraperitoneally in two different dosages (5 and 3 mg/kg) to the test groups 30 min before the antigen challenge. Sensitized and control groups were used to assess the anti-inflammatory activity ([Corrêa et al., 2017]).
Mice were euthanized with intraperitoneal ketamine and xylazine (100 and 10 mg/kg, respectively; Agibrands do Brazil, São Paulo, São Paulo, Brazil), 24 h after exposure to the last aerosol challenge. A tracheal cannula was inserted via a mid cervical incision, and the airways were washed twice with 1 ml of phosphate-buffered saline (PBS, pH 7.4 at 4°C).
The bronchoalveolar lavage fluid was centrifuged at 170 × g for 10 min at 4°C, the supernatant was removed, and the cell pellet was re-suspended in 1 ml of PBS. One volume of a solution containing 0.5% crystal violet dissolved in 30% acetic acid was added to nine volumes of the cell suspension. The total number of cells was determined by counting in a hematocytometer. […]

[7] = displacement of 1.15 nM [3H]-histamine, HEK293T cells, Cheng-Prusoff, read-out: H4R pKi ± SEM (converted)
[8] = displacement of 1.15 nM [3H]-histamine, HEK293T cells, Cheng-Prusoff

T2 sequence (Q9Y5N1 whole entry, species assumed): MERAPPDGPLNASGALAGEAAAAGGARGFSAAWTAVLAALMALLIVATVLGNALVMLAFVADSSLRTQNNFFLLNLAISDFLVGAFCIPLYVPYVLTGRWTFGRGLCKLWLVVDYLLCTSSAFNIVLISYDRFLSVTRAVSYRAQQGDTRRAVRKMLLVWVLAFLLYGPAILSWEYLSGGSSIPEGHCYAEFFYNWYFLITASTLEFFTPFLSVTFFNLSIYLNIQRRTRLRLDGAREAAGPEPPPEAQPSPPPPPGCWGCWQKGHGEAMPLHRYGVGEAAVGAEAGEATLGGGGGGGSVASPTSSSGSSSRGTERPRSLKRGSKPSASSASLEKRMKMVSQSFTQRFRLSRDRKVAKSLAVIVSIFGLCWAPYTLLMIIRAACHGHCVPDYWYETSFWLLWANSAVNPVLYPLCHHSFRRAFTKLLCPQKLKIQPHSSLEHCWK
T1 sequence (Q9H3N8 whole entry, species assumed): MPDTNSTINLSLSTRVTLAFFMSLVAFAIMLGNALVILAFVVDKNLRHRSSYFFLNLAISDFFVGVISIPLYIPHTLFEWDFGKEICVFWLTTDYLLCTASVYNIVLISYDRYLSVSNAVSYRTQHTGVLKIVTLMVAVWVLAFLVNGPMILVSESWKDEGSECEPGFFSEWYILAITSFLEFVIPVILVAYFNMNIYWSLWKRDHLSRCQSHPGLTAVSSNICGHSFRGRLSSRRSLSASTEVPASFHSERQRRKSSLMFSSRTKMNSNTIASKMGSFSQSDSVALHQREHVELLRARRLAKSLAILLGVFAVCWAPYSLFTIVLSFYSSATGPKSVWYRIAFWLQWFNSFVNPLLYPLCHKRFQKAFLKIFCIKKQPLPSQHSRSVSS

Compound | Ki [1, 7] | Ki [2, 8] | SI H4R/H3R (Ki) [2] | also measured
COc1ccc2c(c1)CC(CN1CCN(C)CC1)O2 (centres unmarked) [1g, 1-methyl-4-[(5-methoxy-2,3-dihydro-1-benzofuran-2-yl)methyl]piperazine] | > 10000 nM | 871 nM | >11 | –
NC(=NCc1ccc(Cl)cc1)SCCCc1cnc[nH]1 [Clobenpropit] | – | – | – | Gi activation at H3R (agonist mode) [3]: unable to trigger Gi activation
CN1CCN(C(=O)c2cc3cc(Cl)ccc3[nH]2)CC1 [JNJ-7777120, reference compound] | – | – | – | effect on inflammatory infiltrations in experimental murine asthma model ([4]; ref Neumann et al., 2013): capable of reducing the inflammatory infiltrations
Cc1ccc2c(c1)CC(CN1CCN(C)CC1)O2 (centres unmarked) [1f, 1-methyl-4-[(5-methyl-2,3-dihydro-1-benzofuran-2-yl)methyl]piperazine] | – | 708 nM | 14 | Gi activation at H4R (agonist mode) [5]: weak agonistic effect in high concentrations; also recorded: moderate agonistic effect; block of histamine activity at H4R (antagonist mode) [5]: only partially blocked histamine activity; also recorded: only partially reduced histamine effect; Ki ([1]; read-out: H4R Ki / binding affinity): ~10000 nM; binding to H4R in initial screening (in words) [1]: considerable binding to H4R
C=CCN1CCN(CC2Cc3ccccc3O2)CC1 (centres unmarked) [1c, 1-allyl-4-[(2,3-dihydro-1-benzofuran-2-yl)methyl]piperazine] | > 10000 nM | – | >25 | H3R pKi ± SEM [2, 8]: 6.40 ± 0.21
CN1CCN(CC2Cc3cc(C(C)(C)C)ccc3O2)CC1 (centres unmarked) [1h, 1-methyl-4-[(5-tert-butyl-2,3-dihydro-1-benzofuran-2-yl)methyl]piperazine] | > 10000 nM | ~851 nM and 851 nM | > 11 | –
CN1CCN(CC2Cc3cc(Cl)ccc3O2)CC1 (centres unmarked) [1e, 1-[(5-chloro-2,3-dihydro-1-benzofuran-2-yl)methyl]-4-methylpiperazine] | 871 nM | ~851 nM and 851 nM | 1.1 | Gi activation at H4R (agonist mode) [5]: did not trigger Gi activation; block of histamine activity at H4R (antagonist mode) [5]: fully blocked histamine agonistic effect; increase in affinity for H4R by insertion of the chlorine atom ([1]; 1e against the non-substituted molecule): more than 10 fold; binding to H4R in initial screening (in words) [1]: considerable binding to H4R; effect on total inflammatory cell and eosinophil counts in bronchoalveolar lavage [6]: low counts in both doses; also recorded: highly effective at low doses; effect on total inflammatory cell and eosinophil counts in bronchoalveolar lavage ([6]; listed as LINS01007): better anti-inflammatory activity
Clc1ccc2c(c1)CC(CN1CCN(c3ccccc3)CC1)O2 (centres unmarked) [1i, 1-[(5-chloro-2,3-dihydro-1-benzofuran-2-yl)methyl]-4-phenylpiperazine] | > 10000 nM | > 10000 nM | – | affinity for H3R (in words) [2]: did not show appreciable affinity
c1ccc2c(c1)CC(CN1CCNCC1)O2 (centres unmarked) [1a, 1-[(2,3-Dihydro-1-benzofuran-2-yl)methyl]piperazine] | > 10000 nM | > 10000 nM | – | affinity for H3R (in words) [2]: did not show appreciable affinity
NCCc1c[nH]cn1 [Histamine, reference compound] | – | – | – | Gi activation at H4R (agonist mode) [5]: poor stimulant of Gi; Gi activation at H3R (agonist mode) [3]: strong activation signal
c1ccc(N2CCN(CC3Cc4ccccc4O3)CC2)cc1 (centres unmarked) [1d, 1-[(2,3-dihydro-1-benzofuran-2-yl)methyl]-4-phenyl-piperazine] | > 10000 nM | > 10000 nM | – | anti-inflammatory activity in mouse asthma model ([4]; earlier report, ref Corrêa et al., 2017): anti-inflammatory activity only at 5 mg/kg dose; affinity for H3R (in words) [2]: did not show appreciable affinity; effect on total inflammatory cell and eosinophil counts in bronchoalveolar lavage [6]: dose-dependent effect
CN1CCN(CC2Cc3ccccc3O2)CC1 (centres unmarked) [1b, 1-[(2,3-dihydro-1-benzofuran-2-yl)methyl]-4-methylpiperazine] | > 10000 nM | 2690 nM | – | –
